US9789114B2, “Compounds as HIF-1α inhibitors and manufacturing process thereof” (DONGGUK UNIVERSITY INDUSTRY-ACADEMIC COOPERATION FOUNDATION, priority 2011, dated 2017)
Like-named read-outs stand apart in the source and are kept apart here. Blank lines part the entries; values can stand above or below the molecule they belong to.

Legend:
[1] = Body weight change and side effects during 14 days of oral treatment in nude mice; assay type: in vivo, BALB/c nu/nu mice
Description: (§1) In vivo anti-cancer activity of the compounds according to the present invention, I-3, I-6, I-8, I-16, I-19, I-22, I-23, and I-24, was measured in mice to evaluate in vivo efficacy by oral administration. Specifically, the nude mice were divided into test groups and control groups, each consisting of 4 mice. In vivo efficacy was evaluated by measuring body weight, tumor volume, and tumor weight.
(§2) Female nude mice 6 weeks old (BALB/c nu/nu, Charles River) were bred in germ-free breeding rooms maintained at constant temperature and humidity. After the nude mice were anesthetized, HCT116 colon cancer cells were implanted at a count of […] cells/mouse into the rectum in BALB/c nu/nu mice and then the incisions were closed with surgical clips. The size of tumor was measured by a caliper. When the size of transplanted tumor reached to 50˜60 mm^3, the above compounds according to the present invention were administered. In more detail, after the above compounds in test groups were dissolved at concentration of 20 mg/kg in a solvent containing 80% of physiological saline, 10% of DMAC (dimethylacetamide), and 10% Tween 80 (hereinafter referred to as ‘Solvent A’), […] of dissolved compounds were orally administered once a day. Mice in control groups were treated with […] of Solvent A alone once daily.
(§3) Tumor volume and body weight were measured to identify in vivo anti-cancer activity of the compounds according to the present invention by repetitive oral administration. Tumor volume and tumor growth inhibition (TGI) in Table 2 were calculated according to the below Mathematic FIG. 1 and FIG. 2, respectively. Tumor growth inhibition was converted to a percentage in Table 2.
Moreover, severe side effects and statistically significant changes of body weight in all mice treated compounds were not shown for 14 days, comparing to control groups treated with vehicle. (Table 3)

[2] = tested on: Chick embryo chorioallantoic membrane; experiment: CAM (chick embryo chorioallantoic membrane) assay; assay type: in vivo; settings: 10-20 μg on coverslip, 2 days, FIG. 2
Description: CAM (Chick embryo chorioallantoic membrane) assay was conducted as an in vivo model to determine whether the compounds according to the present invention, I-3, I-6, I-19, and I-22, had anti-angiogenic effects or not. DMSO-treated groups were used as negative controls.
According to the present invention, CAM assay was performed as follows.
Fertilized eggs were incubated periodically rolling at 37° C. with 50% humidity for 2-3 days. When eggs were erected, approximately 3 ml of albumin was extracted from the sharp edge of the eggs using a syringe. The hole of the eggs was sealed with a tape to prevent from dryness and contamination, and the hole of the eggs was put down and incubated for 2 to 3 days. After punching a hole with 1.5 cm diameter in the round part of eggs, opaque membrane was removed carefully. The compounds (10-20 μg) according to the present invention were placed and spread on thermanox coverslip equally to dry, and then the hole in the round part of eggs put on the upper part of the fertilized eggs that vessels grew. The eggs were examined under the dissecting microscope and the results were given in FIG. 2, after covering the hole with a coverglass to protect it from contamination for 2 days.

[3] = tested on: HCT116 colon cancer cells; experiment: In vivo anti-cancer activity by oral administration, HCT116 tumor in nude mice; design: species or system BALB/c nu/nu mice; settings: for inhibitory effects on tumor growth (TGI results): 20 mg/kg oral once a day, 14 days; for inhibition in vivo at 20 mg/kg: Mus musculus
Description: <Example 4> In Vivo Anti-Cancer Activity of Compounds by Oral Administration
as §1, §2, §3

[4] = tested on: HIF-1α-mediated HRE transcriptional activity; experiment: Assay for inhibition of HIF-1α-mediated transcriptional activity (HRE reporter assay); assay type: cell-based, human; settings: Homo sapiens, HCT-116, HCT116 cells, 12 hours under hypoxia (1% O2), read-out: Inhibitory activity against HIF-1α (10 μM)
Description: <Experiment 1> Assay for Inhibition of HIF-1α-Mediated Transcriptional Activity (HRE Reporter Assay)
The compounds can be developed as anti-cancer drugs, because the compounds inhibiting HIF-1α-mediated HRE transcriptional activity induced by hypoxia can suppress the growth and metastasis of cancer.
Inhibitory effects of the compounds according to the present invention, from Formula I-1 to I-42, on HIF-1α-mediated transcriptional activity were evaluated using this assay. pGL3-HRE-luciferase vector was constructed as follows. Six copies of HRE (Hypoxia Responsive Element, 5′-ACGTG-3′) from human VEGF genes were inserted into the multi-cloning site of a pGL3-basic vector (Promega). A luciferase gene was used as a reporter gene.
In detail, HCT116(ATCC #CCL-247) human colon cancer cells were seeded in 48-well cell culture plates. The cells were co-transfected with 25 ng of pGL3-HRE-luciferase and 2.5 ng of Renila control vectors using Polyfect reagent next day. After 24 hours of incubation, the cells were incubated for an additional 4 hours with replaced cell culture media. The cells were treated with various concentrations (0, 1, 3, 5, 10, and 20 μM) of the above compounds according to the present invention and incubated for 12 hours under hypoxia (1% O2, 94% N2, and 5% CO2). The luciferase assay was performed using a dual-luciferase reporter assay system (Promega). After cell lysate preparation with RIPA buffer, induced luciferase activity under hypoxic conditions was determined to examine inhibitory effects of the compounds according to the present invention, from Formula I-1 to I-42, on HIF-1α-mediated transcriptional activity.

GAPDH = GAPDH expression level (internal control) in western blot, HCT116 cells; assay type: cell-based, human; settings: HCT116, hypoxia 1% O2, 0-30 μM, 12 hours, FIG. 1
Description: (§4) First, HCT116 human colon cancer cells (ATCC #CCL-247) were plated at the concentration of 2×10^5 cells/ml. After 24 hours, the cells were incubated under hypoxia (1% O2, 94% N2, and 5% CO2, expressed as 1% O2 in FIG. 1) for 4 hours in order to induce HIF-la accumulation. Cells were treated with the compounds at various concentrations (0, 3, 10, 20, and 30 μM) for 12 hours under hypoxia. The cells were then harvested, and lysed in RIPA buffer to obtain nuclear extracts. Cells grown at 20% O2 (normoxia) were used as control groups to compare HIF-1α-mediated gene expression under each condition. 30 μg of the nuclear extracts per sample was separated by SDS-PAGE (sodium dodecyl sulfate-polyacrylamide gel electrophoresis), and was then transferred to PVDF (polyvinylidene fluoride membrane) membranes. After membranes were probed with HIF-1α antibodies (R&D System), HIF-1α proteins were detected with HRP-conjugated secondary antibodies (Amersham-Pharmacia). GAPDH (Glyceraldehyde 3-phosphate dehydrogenase) was used as an internal control for loading in western blot analysis.

HIF-1α = target: T1, HIF-1α (Homo sapiens, UniProt Q16665); experiment: Inhibition of hypoxia-induced HIF-1α accumulation, western blot in HCT116 cells; assay type: cell-based; settings: HCT116, hypoxia 1% O2, 0-30 μM, 12 hours, FIG. 1
T1 construct: endogenous in cells; host or cells: HCT116 human colon cancer cells (ATCC #CCL-247)
T1 sequence (Q16665 whole entry): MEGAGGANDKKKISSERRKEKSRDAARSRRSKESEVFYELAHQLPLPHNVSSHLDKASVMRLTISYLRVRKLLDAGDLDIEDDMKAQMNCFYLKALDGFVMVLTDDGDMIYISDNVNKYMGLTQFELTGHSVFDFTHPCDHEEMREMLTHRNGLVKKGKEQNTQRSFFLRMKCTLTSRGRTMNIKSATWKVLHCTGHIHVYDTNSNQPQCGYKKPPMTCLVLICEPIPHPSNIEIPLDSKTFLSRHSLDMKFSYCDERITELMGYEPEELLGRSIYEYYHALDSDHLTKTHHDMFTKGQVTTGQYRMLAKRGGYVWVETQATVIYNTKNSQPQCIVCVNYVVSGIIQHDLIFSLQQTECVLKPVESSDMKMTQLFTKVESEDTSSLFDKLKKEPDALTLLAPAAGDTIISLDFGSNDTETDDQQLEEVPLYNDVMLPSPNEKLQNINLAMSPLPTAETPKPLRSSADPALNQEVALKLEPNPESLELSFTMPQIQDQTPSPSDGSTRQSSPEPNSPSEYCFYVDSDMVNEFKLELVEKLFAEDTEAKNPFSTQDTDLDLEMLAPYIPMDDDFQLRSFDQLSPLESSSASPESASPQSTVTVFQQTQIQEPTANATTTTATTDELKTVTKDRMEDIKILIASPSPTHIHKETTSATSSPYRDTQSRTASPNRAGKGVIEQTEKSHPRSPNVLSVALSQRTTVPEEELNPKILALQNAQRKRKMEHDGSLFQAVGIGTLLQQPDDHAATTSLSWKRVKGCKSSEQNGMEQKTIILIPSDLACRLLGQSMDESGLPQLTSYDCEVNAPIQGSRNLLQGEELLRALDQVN
Description: <Experiment 2> In Vitro Studies for Inhibition of Hypoxia-Induced HIF-1α Accumulation
Inhibition of HIF-1α accumulation by the compounds according to the present invention was determined in HCT116 human colon cancer cells. In particular, western blot analysis was used to identify the compounds, I-3, I-6, I-8, I-16, I-19, I-22˜I-24, and I-27˜I-36, which inhibited HIF-1α accumulation under hypoxia.
as §4

[5] = day 0, 20 mg/kg oral once a day
[6] = day 3, 20 mg/kg oral once a day
[7] = day 5, 20 mg/kg oral once a day
[8] = day 7, 20 mg/kg oral once a day
[9] = day 10, 20 mg/kg oral once a day
[10] = day 12, 20 mg/kg oral once a day
[11] = day 14, 20 mg/kg oral once a day
[12] = HCT-116, 72 h, day 3, 20 mg/kg oral once a day, read-out: TGI (tumor growth inhibition), tumor volume
[13] = HCT-116, 120 h, day 5, 20 mg/kg oral once a day, read-out: TGI (tumor growth inhibition), tumor volume
[14] = HCT-116, 168 h, day 7, 20 mg/kg oral once a day, read-out: TGI (tumor growth inhibition), tumor volume
[15] = HCT-116, 240 h, day 10, 20 mg/kg oral once a day, read-out: TGI (tumor growth inhibition), tumor volume
[16] = HCT-116, 288 h, day 12, 20 mg/kg oral once a day, read-out: TGI (tumor growth inhibition), tumor volume
[17] = HCT-116, 336 h, day 14, 20 mg/kg oral once a day, read-out: TGI (tumor growth inhibition), tumor volume
[18] = HCT-116, 336 h, day 14, 20 mg/kg oral once a day, read-out: TGI (tumor growth inhibition), tumor weight

SMILES: CN1CCN(C(=O)COc2ccc(C34CC5CC(CC(C5)C3)C4)cc2)CC1 [Compound I-3, 2-(4-(Adamantan-1-yl)phenoxy)-1-(4-methylpiperazin-1-yl)ethanone]
Body weight change [1, 5]: 100.0 ± 0.0%
Body weight change [1, 6]: 103.2 ± 2.8%
Body weight change [1, 7]: 104.7 ± 3.0%
Body weight change [1, 8]: 105.1 ± 2.8%
Body weight change [1, 9]: 104.6 ± 2.7%
Body weight change [1, 10]: 103.1 ± 2.7%
Body weight change [1, 11]: 103.7 ± 4.0%
formation of vessels (anti-angiogenic effect) [2]: inhibited formation of vessels
inhibitory effects on tumor growth (TGI results) [3]: significant inhibitory effects on tumor growth
inhibition in vivo at 20 mg/kg [3, 12]: 33.2%
inhibition in vivo at 20 mg/kg [3, 13]: 35%
inhibition in vivo at 20 mg/kg [3, 14]: 36%
inhibition in vivo at 20 mg/kg [3, 15]: 41.6%
inhibition in vivo at 20 mg/kg [3, 16]: 44.1%
inhibition in vivo at 20 mg/kg [3, 17]: 49.2%
inhibition in vivo at 20 mg/kg [3, 18]: 51.5%
Tumor volume [3, 6]: 31.6 ± 5.0 mm^3
Tumor volume [3, 7]: 74.8 ± 11.7 mm^3
Tumor volume [3, 8]: 133.7 ± 14.8 mm^3
Tumor volume [3, 9]: 237.0 ± 24.9 mm^3
Tumor volume [3, 10]: 371.4 ± 36.2 mm^3
Tumor volume [3, 11]: 587.8 ± 48.4 mm^3
Tumor weight [3, 11]: 2074.2 ± 373.8 mg
inhibition at 10 µM [4]: 76 to 100%
GAPDH expression levels (GAPDH): did not affect GAPDH expression levels
HIF-1α degradation (HIF-1α): promoted HIF-1α degradation
inhibitory effects on HIF-1α accumulation (HIF-1α): significant inhibitory effects on HIF-1α accumulation

HIF-1α degradation (HIF-1α): promoted HIF-1α degradation
SMILES: Cc1cc(C23CC4CC(CC(C4)C2)C3)ccc1OCC(=O)N1CCOCC1 [Compound I-6, 2-(4-(Adamantan-1-yl)-2-methylphenoxy)-1-morpholinoethanone]
Body weight change [1, 5]: 100.0 ± 0.0%
Body weight change [1, 6]: 103.4 ± 0.6%
Body weight change [1, 7]: 103.6 ± 2.6%
Body weight change [1, 8]: 103.8 ± 3.3%
Body weight change [1, 9]: 105.0 ± 3.1%
Body weight change [1, 10]: 103.8 ± 2.9%
Body weight change [1, 11]: 102.4 ± 3.0%
formation of vessels (anti-angiogenic effect) [2]: inhibited formation of vessels
inhibition in vivo at 20 mg/kg [3, 12]: 25%
inhibition in vivo at 20 mg/kg [3, 13]: 24.1%
inhibition in vivo at 20 mg/kg [3, 14]: 26.5%
inhibition in vivo at 20 mg/kg [3, 15]: 28.4%
inhibition in vivo at 20 mg/kg [3, 16]: 28.1%
inhibition in vivo at 20 mg/kg [3, 17]: 28.4%
inhibition in vivo at 20 mg/kg [3, 18]: 28.1%
Tumor volume [3, 6]: 25.5 ± 7.5 mm^3
Tumor volume [3, 7]: 70.1 ± 9.7 mm^3
Tumor volume [3, 8]: 128.4 ± 14.0 mm^3
Tumor volume [3, 9]: 186.6 ± 15.2 mm^3
Tumor volume [3, 10]: 322.5 ± 19.6 mm^3
Tumor volume [3, 11]: 476.9 ± 28.1 mm^3
Tumor weight [3, 11]: 1703.3 ± 252.2 mg
inhibition at 10 µM [4]: 76 to 100%
GAPDH expression levels (GAPDH): did not affect GAPDH expression levels

SMILES: C[N+]1(C)CCN(C(=O)CCCOc2ccc(C34CC5CC(CC(C5)C3)C4)cc2)CC1.[I-] [Compound I-22, 4-(4-(4-(Adamantan-1-yl)phenoxy)butanoyl)-1,1-dimethylpiperazin-1-ium iodide]
Body weight change [1, 5]: 100.0 ± 0.0%
Body weight change [1, 6]: 104.1 ± 3.5%
Body weight change [1, 7]: 104.1 ± 4.6%
Body weight change [1, 8]: 104.1 ± 3.3%
Body weight change [1, 9]: 105.6 ± 5.1%
Body weight change [1, 10]: 103.8 ± 3.6%
Body weight change [1, 11]: 102.7 ± 4.1%
formation of vessels (anti-angiogenic effect) [2]: inhibited formation of vessels
inhibitory effects on tumor growth (TGI results) [3]: significant inhibitory effects on tumor growth
inhibition in vivo at 20 mg/kg [3, 12]: 39.8%
inhibition in vivo at 20 mg/kg [3, 13]: 40.8%
inhibition in vivo at 20 mg/kg [3, 14]: 43.4%
inhibition in vivo at 20 mg/kg [3, 15]: 45.1%
inhibition in vivo at 20 mg/kg [3, 16]: 45.1%
inhibition in vivo at 20 mg/kg [3, 17]: 47.8%
inhibition in vivo at 20 mg/kg [3, 18]: 49.5%
Tumor volume [3, 6]: 20.4 ± 1.1 mm^3
Tumor volume [3, 7]: 54.7 ± 2.8 mm^3
Tumor volume [3, 8]: 98.9 ± 4.8 mm^3
Tumor volume [3, 9]: 143.1 ± 6.2 mm^3
Tumor volume [3, 10]: 246.4 ± 10.8 mm^3
Tumor volume [3, 11]: 347.6 ± 11.8 mm^3
Tumor weight [3, 11]: 1197.3 ± 156.3 mg
inhibition at 10 µM [4]: 51 to 75%
inhibitory effects on HIF-1α accumulation (HIF-1α): significant inhibitory effects on HIF-1α accumulation
